Data published in patent publication US5045566A, “Novel imidate insecticides” (ICI Americas Inc., priority 1989, dated 1991).

How the values were obtained:
Format in all cases: in vivo
[1] = test system: Cabbage Looper [Trichoplusia ni (Hubner)]; assay: Cabbage looper leaf dip (CL), 3-5 days; settings: percent in solution, second-instar larvae
Method in brief: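 Compounds in 50-50 acetone-water were applied by dipping squash cotyledons (about 1×1.5 in) for 2-3 s; dried leaves went into petri dishes on moist filter paper with 5 second-instar larvae under high humidity. Mortality was scored after 3-5 days; LC50 from dosage-mortality curves, as percent compound in solution.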

[2] = test system: Black Bean Aphid [Aphis fabae (Scop.)]; assay: Black bean aphid spray test on nasturtium (BBA), 48 hours; settings: percent of test compound in sprayed solution
Method in brief: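 LC50, given as percent test compound in the sprayed liquid, was calculated from dosage-mortality curves using concentrations from 0.05% downward. Sprays in 50:50 acetone-water went to runoff on ~5 cm nasturtiums carrying 25-50 aphids of mixed ages, one day after infestation. Deaths were counted 48 h later under greenhouse conditions.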

[3] = test system: Housefly [Musca domestica]; assay: Housefly contact mortality in dishes (HF), 48 hours; settings: μg of test compound per 25 female flies
Method in brief: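 Residual contact test: acetone dilution, 0.01% peanut oil spreader, solvent evaporated; 25 ♀ flies (1-2 d old) per cage; sugar-water plug; 48 h mortality read. LC50 in μg/25 female flies, from dose-mortality curves; top dose 100 μg/25 flies.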

[4] = test system: Aster Leafhopper [Macrosteles fascifrens (Stal)]; assay: Aster leafhopper on dipped oat seedlings (LH), 48 hours; settings: percent in solution, adults/nymphs
Method in brief: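 Three ~10 cm oat seedlings per cup were dipped 2-3 seconds in 50-50 acetone-water compound solutions, dried, and caged with ten adult/nymph leafhoppers. Mortality was counted after 48 hours at concentrations from 0.05% downward. LC50, as percent compound in solution, came from dosage-mortality curves.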

[5] = test system: Tobacco Budworm [Heliothis virescens (Fabricius)] eggs; assay: Tobacco budworm eggs (TBW-E); settings: percent in solution; 2-day old eggs
Method in brief: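 Paper towel patches bearing 2-day old eggs were dipped in acetone solutions of compound, then set in petri dishes over larval rearing medium at 78° F. Mortality was scored once all control eggs had hatched and larvae were feeding. LC50, from dosage-mortality curves, is given as percent compound in solution.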

[6] = test system: Tobacco Budworm [Heliothis virescens (Fabricius)] larvae; assay: Tobacco budworm larvae, contact (TBW-C), 5 days; settings: percent in solution, second-instar larvae
Method in brief: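 Cotton cotyledons dipped 2–3 s in compound in 50-50 acetone-water, dried, then infested with 5 second-instar larvae and held 5 days at high humidity. Mortality scored; LC50 from dosage-mortality curves, expressed as percent compound in solution, concentrations from 0.1% downward.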

[7] = test system: Beet Armyworm (Spodoptera exigua); assay: Beet armyworm leaf dip (BAW), 5 days; settings: percent in solution; second-instar larvae; five days
Experimental: The compounds in Tables 1 and 2 above were tested for insecticidal activity using the following testing procedures. LC50 values, based on the results of these tests and calculated according to dosage-mortality curves, are expressed in Table 3.
Beet Armyworm (Spodoptera exigua):
Test compounds were diluted in a 50-50 acetone-water solution. Young leaves of sugar beets (Beta vulgaris) were immersed in the test solutions for 2-3 seconds and placed on a wire screen to dry. The dried leaves were placed in petri dishes containing a moistened filter paper and infested with five second-instar beet armyworm larvae. The dishes were placed in a high humidity chamber. Mortality of the larvae was recorded five days later. Test concentrations ranged from 0.1% downward. The LC-50 values are expressed below in Table 3 under the heading "BAW" in terms of percent of the test compound in solution.

[8] = test system: Maize weevil [Sitophilus zeamais (Motschulsky)]; assay: Maize weevil on dipped corn seeds (MW), 48 hours; settings: percent in solution, adult weevils
Method in brief: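 LC50, given as percent of compound in dipping solution, comes from dosage-mortality curves over concentrations descending from 0.01%. Four corn seeds soaked 2-3 s in 50:50 acetone:water solution were dried and held with 10 adult weevils, about 25° C, mortality read after 48 h.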

Row | SMILES | LC50 CL [1] [%] | LC50 BBA [2] [%] | LC50 HF [3] [µg] | LC50 LH [4] [%] | LC50 TBW E (eggs) [5] [%] | LC50 TBW C (contact) [6] [%] | LC50 BAW [7] [%] | LC50 MW [8] [%]
1 | CC(C)C(=Nc1ccc(Cl)cc1)OCc1cccc(Oc2ccccc2)c1 [Compound 2] | 0.006 | 0.0003 | 4.5 | 0.0003 | 0.04 | 0.0009 | 0.01 | –
2 | Clc1ccc(N=C(OCc2cccc(Oc3ccccc3)c2)C(Cl)Cl)c(Cl)c1 [Compound 4] | 0.007 | > 0.05 | 100 | > 0.05 | > 0.1 | 0.05 | 0.04 | –
3 | Clc1ccccc1N=C(OCc1cccc(Oc2ccccc2)c1)C(Cl)Cl [Compound 34] | 0.015 | > 0.05 | > 100 | – | > 0.1 | 0.01 | 0.015 | –
4 | CC(C)C(=Nc1cccc(F)c1)OCc1cccc(Oc2ccccc2)c1 [Compound 47] | 0.002 | 0.001 | 10 | 0.0003 | 0.06 | 0.002 | 0.002 | –
5 | CC(C)C(=Nc1ccc(F)cc1F)OCc1cccc(Oc2ccccc2)c1 [Compound 52] | 0.0025 | 0.001 | 8 | 0.001 | > 0.05 | 0.004 | 0.01 | –
6 | CC(C)C(=Nc1ccc(F)cc1)OCc1ccc(F)c(Oc2ccccc2)c1 [Compound 53] | 0.0005 | 0.001 | 2 | – | 0.02 | 0.0025 | 0.003 | –
7 | CC(C)C(=Nc1ccc(F)c(F)c1)OCc1cccc(Oc2ccccc2)c1 [Compound 54] | 0.0003 | 0.001 | 3.5 | 0.00015 | 0.017 | 0.001 | 0.004 | –
8 | Cc1c(Cl)cccc1N=C(OCc1cccc(Oc2ccccc2)c1)C(Cl)Cl [Compound 97] | 0.002 | 0.001 | 10 | – | 0.04 | 0.004 | 0.01 | –
9 | Cc1ccc(N=C(OCc2cccc(Oc3ccccc3)c2)C(Cl)Cl)cc1 [Compound 139] | 0.015 | 0.001 | 4.2 | – | 0.05 | 0.005 | 0.007 | –
10 | O=[N+]([O-])c1ccc(N=C(OCc2cccc(Oc3ccccc3)c2)C(Cl)Cl)cc1 [Compound 173] | 0.02 | > 0.05 | 18 | – | > 0.1 | > 0.1 | > 0.1 | –
11 | CC(C)C(=Nc1ccc(Br)c(F)c1)OCc1ccc(F)c(Oc2ccc(F)cc2)c1 [Compound 282] | 0.00007 | – | 16 | – | 0.02 | 0.0007 | 0.0025 | 0.008
12 | CC(C)C(=Nc1ccc2c(c1)OC(C)(C)O2)OCc1ccc(F)c(Oc2ccc(F)cc2)c1 [Compound 283] | 0.00009 | – | 23 | – | 0.016 | 0.0009 | 0.0013 | > 0.01
13 | CC(C)C(=Nc1ccc(F)c(I)c1)OCc1ccc(F)c(Oc2ccc(Cl)cc2)c1 [Compound 326] | 0.00015 | > 0.05 | 25 | – | 0.03 | 0.0005 | 0.004 | –
14 | CC(C)C(=Nc1ccc(F)c(Cl)c1F)OCc1cccc(Oc2ccccc2)c1 [Compound 332] | 0.00045 | > 0.05 | 7 | – | 0.015 | 0.00075 | 0.0012 | –
15 | CC(C)C(=Nc1ccc(Br)cc1)OCc1ccc(F)c(Oc2ccc(F)cc2)c1 [Compound 333] | 0.00024 | 0.001 | 15 | – | 0.025 | 0.00075 | > 0.1 | > 0.01
16 | CC(C)C(=Nc1ccc(I)cc1)OCc1ccc(F)c(Oc2ccc(F)cc2)c1 [Compound 335] | 0.00027 | 0.0008 | 34 | – | 0.05 | 0.00025 | > 0.1 | > 0.01
17 | CC(C)C(=Nc1ccc(F)c(Cl)c1)OCc1cc(Oc2ccc(F)cc2)c(F)cc1F [Compound 343] | 0.00027 | 0.002 | 40 | – | > 0.1 | 0.00025 | > 0.1 | > 0.01
18 | CC(C)C(=Nc1ccc2c(c1)OC(F)(F)O2)OCc1cccc(Oc2ccc(Cl)cc2)c1 [Compound 450] | 0.00016 | – | 72 | – | 0.015 | 0.0001 | 0.005 | 0.01
19 | CC(C)C(=Nc1ccc(F)c(Cl)c1)OCc1cccc(Oc2ccc(Cl)cc2)n1 [Compound 463] | 0.00009 | 0.05 | 8 | 0.0003 | 0.0075 | – | 0.0024 | 0.01
20 | CC(C)C(=Nc1ccc(F)c(Cl)c1F)OCc1cccc(Oc2ccc(Cl)cc2)n1 [Compound 500] | 0.00009 | > 0.05 | 16 | – | 0.02 | 0.00075 | 0.002 | –
